Assay results as given in patent US9206190B2 (priority 2008, dated 2015).

What was measured:
rats [1] = details: rat, in vivo
rats [2] = details: rat, in vivo; remark: listed apart in the source

Q: For `CC(C)C[C@H](CN)CC(=O)O` [Pregabalin], which “effect on left and right paw withdrawal latencies compared to vehicle control” value (rats [1]) is on record?
A: failed to have a significant effect

Q: And the sedative clinical symptoms (rats [2])?
A: dose-dependant increase in the level of sedative clinical symptoms
